Experimental data as given in patent US10800734B2, “Memantine compounds and their preparation and uses thereof” (Sunshine Lake Pharma Co., Ltd., priority 2016, dated 2020).
Like-named read-outs stand apart in the source and are kept apart here.

How the values were obtained:
[1] = format: in vitro ADME; conditions: human, microsomes, 1 μM, pH 7.4
Description: (§1) Analytical LC/MS/MS systems: Agilent 1200 Series vacuum degasser, dual-injection pump, orifice autosampler, column incubator, charged spray ionization (ESI) source, and Agilent G6430 three-stage quadrupole mass spectrometer. The quantitative analysis is performed in the MRM mode, with the following MRM conversion parameters:
Analytical Agilent Poroshell HPH-C18: 2.1×50 mm, 2.7 μM column, 20 μL of sample was injected. Conditions: mobile phase with ammonium formate+0.1% formic acid (A) and methanol+2 mM ammonium formate+0.1% formic acid (B). The flow rate was 0.3 mL/min. The mobile phase gradient is as follows: […]
Agilent 6330 Series LC/MS/MS spectrometer was equipped with G1312A binary injection pump, G1367A automatic sampler and MS/MS detector; LC/MS/MS was used with ESI source. Suitable cationic model treatments and MRM conversion were used for each analyte using standard solution for optimal analysis. The Agilent Poroshell HPH-C18 column was used during the analysis with a specification of 100×4.6 mm I.D., 5 μM. The mobile phase included ammonium formate+0.1% formic acid (A) and methanol+2 mM ammonium formate+0.1% formic acid (B). The flow rate was 0.3 mL/min; the column temperature was maintained at 40° C.; 20 μL of sample was injected.
A human liver microsomal incubation system was used for the testing. The incubation mixtures included human or rat liver microsomes (0.5 mg protein/mL), the tested compound was provided at 1 μM. The compound was dissolved in DMSO and diluted with acetonitrile water and mixed with a mixture of liver microparticle potassium phosphate buffer solution (pH=7.4). The above operations were done on wet ice, and incubated in a thermostatic incubator at 37° C. At different time points (0, 60 and 120 min), ice-cold acetonitrile was added to terminate the reaction. NADPH was not added during the reaction, and the effect of esterase on its conversion was examined. Samples were stored at −80° C. until LC/MS/MS analysis was performed.
The conversion of the compounds of the disclosure to active adamantane compound, which is memantine in the human liver microsome was determined by LC/MS/MS.

[2] = In vivo pharmacokinetics after intramuscular administration in rats
Description: Legend format: tested compound/dose (mg/kg)/converted active adamantane compound, which is memantine.
as §1
Waters XBridge TMC18, 2.1×30 mm, 3.5 μM column; 20 μL of sample was injected in each run. Conditions: The mobile phase included […]+2 mM ammonium formate+0.1% formic acid (A) and methanol+2 mM ammonium formate+0.1% formic acid (B). The flow rate was 0.35 mL/min. The mobile phase gradient is as follows: […]
Additional instruments and reagents included Agilent 6330 Series LC/MS/MS spectrometer equipped with a G1312A Binary Injection Pump, G1367A autosampler and MS/MS Detector for analysis; LC/MS/MS spectrometer with ESI source. Suitable cationic model treatments and MRM conversion were used for each analyte using standard solution for optimal analysis. Waters XBridge TMC18 was used with specifications of 2.1×30 mm, 3.5 μM. The reaction was carried out with ammonium formate+2 mM ammonium formate+0.1% formic acid (A) and methanol+2 mM ammonium formate+0.1% formic acid (B). The flow rate was 0.35 mL/min; the column temperature was maintained at 40° C.; 10 μL of sample was injected.
This example conducted pharmacokinetic studies of various compounds of the present disclosure in rats. The compounds were subjected to pretreatment including grinding and sieving, and were then added to a mixture formed by dissolving and dispersing in Tween-20 and/or Span-20. The mixtures were uniformly dispersed and fixed. The suspensions were pulverized by a ball mill […]. Memantine (MJG, 17.5 mg/kg) or tested compounds (75 or 37.5 mg/kg) were administered by intramuscular administration. Whole blood was collected at 0.25, 1, 2, 5, 7, 24, 48, 72, 96, 120, 148 and 196 h, was centrifuged at 12,000 g for 2 minutes. Plasma was collected and stored at −20° C. or −70° C. until the LC/MS/MS analysis was performed.

[3] = rat, im, solution, 17.5 mg/kg, memantine in plasma

Row | Percentage of Remaining or Converted Active Adamantane Compound ([1]; 1 h) [%] | Percentage of Remaining or Converted Active Adamantane Compound ([1]; 2 h) [%] | AUC(0-t) [2, 3] [ng·h/mL] | Cmax [2, 3] [ng/mL] | Tmax [2, 3] [h] | half-life ([2]; rat, plasma, im, 17.5 mg/kg, solution, 17.5 mg/kg, memantine in plasma, read-out: T½ (converted)) [h] | T½ ([2]; solution, 17.5 mg/kg, memantine in plasma) [h] | T½ ([2]; suspension, 75 mg/kg, converted memantine in plasma) | Structure (SMILES)
1 | 35.6 | 35.6 | – | – | – | – | – | – | CCCCCCCCCCCC(=O)OCOC(=O)NC12CC3CC(C)(CC(C)(C3)C1)C2 [Compound 3]
2 | 25.3 | 34 | – | – | – | – | – | – | CCCCCCCCCCCCCCCC(=O)OCOC(=O)NC12CC3CC(C)(CC(C)(C3)C1)C2 [Compound 4]
3 | 98 | 98 | 11800 | 1940 | 1.33 | ~4 | 4 | – | CC12CC3CC(C)(C1)CC(N)(C3)C2 [MJG, memantine]
4 | 108 | 101 | – | – | – | – | – | – | CC12CC3CC(C)(C1)CC(NC(=O)OCOC(=O)Cc1cccc4ccccc14)(C3)C2 [Compound 1]
5 | 134 | 118 | – | – | – | – | – | too high to be measurable | CC12CC3CC(C)(C1)CC(NC(=O)OCOC(=O)c1ccccc1)(C3)C2 [Compound 2]
